This note sets out measurements from US9000175B2, “Bicyclic GPR119 modulators” (Lupin Limited, priority 2010, dated 2015).

A word on the EC50: it is the concentration giving half of the maximal effect.

Several values for one entry are separate records, joined by “and”; a condition that tells them apart may be missing. Equal entries are not always repeated.

For the first experiment, the target named is T1, human GPR119 (Homo sapiens, UniProt Q8TDV5).
T1 construct: expressed in transfected cells
T1 sequence (Q8TDV5 1-335): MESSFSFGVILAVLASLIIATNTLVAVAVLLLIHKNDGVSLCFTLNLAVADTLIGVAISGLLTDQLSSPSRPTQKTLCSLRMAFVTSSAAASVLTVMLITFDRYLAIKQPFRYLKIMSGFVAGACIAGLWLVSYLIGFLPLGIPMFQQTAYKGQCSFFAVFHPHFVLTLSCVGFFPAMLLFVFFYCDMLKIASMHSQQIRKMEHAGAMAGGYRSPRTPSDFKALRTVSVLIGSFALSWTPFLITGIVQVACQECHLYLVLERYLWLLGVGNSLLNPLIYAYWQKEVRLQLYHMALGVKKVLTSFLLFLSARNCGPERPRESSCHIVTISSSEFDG
The experiment in a line: Cyclic AMP assay in stable cell line. The class given is cell-based. The conditions noted are these: CHO-K1 cells stably transfected with human GPR119; cAMP levels (FRET, cAMP femto kit); 1 h at 37° C; read-out: EC50 Range. As to the method: Cyclic AMP Assay in Stable Cell Line:
Chinese Hamster Ovary (CHO-K1) cells were stably transfected with human GPR119 and were maintained in Ham's F-12 complete medium containing 10% heat inactivated FBS (Sigma, UK). The cells were maintained under a selection pressure with 500 μg/ml G418 (GENETICIN). Stable clones were analyzed for functional cAMP response to OEA (oleoylethanolamide).
To estimate activation of GPR119 and induction of cAMP levels by GPR119 agonists, cells were serum starvation for 18-24 h, trypsinized and seeded in 96 well plates at a, density of 7500 cells/well. The cells were then treated with test compounds diluted in serum free Ham's F12 for 1 h at 37° C. The cAMP levels were measured by using the cAMP femto kit (CisBio) by following the manufacturer's instructions. Following treatment with a test compound, the cells were lysed and cAMP levels were estimated by adding D2-labelled cAMP and europium-cryptate conjugated anti-cAMP antibody. Close proximity of D2 and cryptate results in FRET and the subsequent fluorescence that is measured at 665 and 620 nm. The FRET response is calculated as the ratio of fluorescence at 665 to fluorescence at 620 nm. The unlabelled cAMP produced as a result of GPR119 activation/agonism competes with the D2-cAMP leading to a decrease in the FRET signal. Thus the FRET signal is inversely proportional to the amount of cAMP produced by the treated cells. In a separate set of wells, known concentrations of cAMP were added in order to get a standard linear curve for extrapolation of the cAMP values in the unknown/test samples. Fluorescence was measured on BMG Labtech PHERAstar machine.
The concentration of compound required to stimulate a half-maximal response (EC50) was determined using the GraphPad Prism software.
The compounds prepared were tested using the above assay procedure and the results obtained are given below.
For orientation: Cyclic AMP is a second messenger, typically raised through Gs and lowered through Gi signalling.
With `CCc1cnc(N2CCC(Oc3ccc(-n4ccc5cc(C(=O)NC)ccc54)nc3)CC2)nc1` [Example-63, 1-(5-((1-(5-Ethylpyrimidin-2-yl)piperidin-4-yl)oxy)pyridin-2-yl)-N-methyl-1H-indole-5-carboxamide], the 50% effective concentration (EC50) was under 50 nM.
On the same count and under the same terms, with `CC(C)C(=O)Nc1ccc2c(ccn2-c2ccc(OC3CCN(c4nc(C(C)C)no4)CC3)cn2)c1` [Example-57, N-(1-(5-((1-(3-Isopropyl-1,2,4-oxadiazol-5-yl)piperidin-4-yl)oxy)pyridin-2-yl)-1H-indol-5-yl)isobutyramide] the figure was under 50 nM; with `CCc1noc(N2CCC(Oc3ccc(-n4ccc5cc(C(=O)N(C)C)ccc54)nc3)CC2)n1` [Example-147, 1-(5-((1-(3-Ethyl-1,2,4-oxadiazol-5-yl)piperidin-4-yl)oxy)pyridin-2-yl)-N,N-dimethyl-1H-indole-5-carboxamide], 50 to 250 nM.
As for `CCc1cnc(N2CCC(Nc3ccc(-n4ccc5cc(C(=O)N(C)C)ccc54)nc3)CC2)nc1` [Example-22, 1-(5-((1-(5-Ethylpyrimidin-2-yl)piperidin-4-yl)amino)pyridin-2-yl)-N,N-dimethyl-1H-indole-5-carboxamide], the EC50 is under 50 nM.
Still for that read-out and setting: the same measure for `CNC(=O)c1ccc2c(ccn2-c2ccc(OCC3CCN(C(=O)OC(C)(C)C)CC3)cn2)c1` [Example-66, tert-Butyl-4-(((6-(5-(methylcarbamoyl)-1H-indol-1-yl)pyridin-3-yl)-oxy)methyl)piperidine-1-carboxylate]: 50 to 250 nM; for `CC(C)C(=O)Nc1ccc2c(ccn2-c2ccc(OC3CCN(C(=O)C(C)C)CC3)cn2)c1` [Example-127, N-(1-(5-((1-Isobutyrylpiperidin-4-yl)oxy)pyridin-2-yl)-1H-indol-5-yl) isobutyramide]: under 50 nM; for `CCS(=O)(=O)c1ccc2c(ccn2-c2ccc(OC3CCN(CC(C)(C)O)CC3)cn2)c1` [Example-13, 1-(4-((6-(5-(Ethylsulfonyl)-1H-indol-1-yl)pyridin-3-yl)oxy)piperidin-1-yl)-2-methylpropan-2-ol]: 50 to 250 nM.
For `CC(C)(C)OC(=O)N1CCC(Oc2ccc(-n3ccc4cc(C(=O)NCCO)ccc43)nc2)CC1` [Example-76, tert-Butyl-4-((6-(5-((2-hydroxyethyl)carbamoyl)-1H-indol-1-yl)-pyridin-3-yl)oxy)piperidine-1-carboxylate], the EC50 was 50 to 250 nM.
The same measure, in the same setting: the same measure for `Cc1noc(N2CCC(OCc3ccc(-n4ccc5cc(S(C)(=O)=O)ccc54)nc3)CC2)n1` [Example-112, 3-Methyl-5-(4-((6-(5-(methylsulfonyl)-1H-indol-1-yl)pyridin-3-yl)methoxy)piperidin-1-yl)-1,2,4-oxadiazole]: 250 to 1000 nM.
Same read-out and setting: with `CCOC(=O)N1CCC(Oc2ccc(-n3ccc4cc(-n5cnnn5)ccc43)nc2)CC1` [Example-187, Ethyl-4-((6-(5-(1H-tetrazol-1-yl)-1H-indol-1-yl)pyridin-3-yl)oxy)-piperidine-1-carboxylate] the figure was under 50 nM; with `CCOC(=O)Nc1ccc2c(ccn2-c2ccc(OC3CCN(c4ncc(CC)cn4)CC3)cn2)c1` [Example-9, Ethyl(1-(5-((1-(5-ethylpyrimidin-2-yl)piperidin-4-yl)oxy)pyridin-2-yl)-1H-indol-5-yl)carbamate], under 50 nM; with `CCc1cnc(N2CCC(Oc3ccc(-n4ccc5cc(S(C)(=O)=O)ccc54)nc3)CC2)nc1` [Example-2, 1-(5-((1-(5-Ethylpyrimidin-2-yl)piperidin-4-yl)oxy)pyridin-2-yl)-5-(methylsulfonyl)-1H-indole], under 50 nM.
On the same count and under the same terms, with `CCOC(=O)N1CCC(Oc2ccc(-n3ccc4cc(-n5cncn5)ccc43)nc2)CC1` [Example-192, Ethyl-4-((6-(5-(1H-1,2,4-triazol-1-yl)-1H-indol-1-yl)pyridin-3-yl)oxy) piperidine-1-carboxylate] the figure was 250 to 1000 nM; with `CCc1cnc(N2CCC(Oc3ccc(-n4ccc5cc(C#N)ccc54)nc3)CC2)nc1` [Example-58, 1-(5-((1-(5-Ethylpyrimidin-2-yl)piperidin-4-yl)oxy)pyridin-2-yl)-1H-indole-5-carbonitrile], 250 to 1000 nM; with `CCc1cnc(N2CCC(Oc3ccc(-n4ccc5cc(C(=O)N6CCCC6)ccc54)nc3)CC2)nc1` [Example-71, (1-(5-((1-(5-Ethylpyrimidin-2-yl)piperidin-4-yl)oxy)pyridin-2-yl)-1H-indol-5-yl)(pyrrolidin-1-yl)methanone], under 50 nM.
In the case of `CCc1noc(N2CCC(Oc3ccc(-n4ccc5cc(NC(=O)OC(C)C)ccc54)nc3)CC2)n1` [Example-143, Isopropyl(1-(5-((1-(3-ethyl-1,2,4-oxadiazol-5-yl)piperidin-4-yl)oxy)pyridin-2-yl)-1H-indol-5-yl)carbamate], the EC50 was under 50 nM.
For `CS(=O)(=O)c1ccc2c(ccn2-c2ccc(OC3CCN(Cc4ccc(C(F)(F)F)cc4)CC3)cn2)c1` [Example-153, 5-(Methylsulfonyl)-1-(5-((1-(4-(trifluoromethyl)benzyl)piperidin-4-yl)oxy)pyridin-2-yl)-1H-indole], the EC50 is 50 to 250 nM.
With `Cc1noc(N2CCC(Oc3ccc(-n4ccc5cc(S(=O)(=O)C(C)C)ccc54)nc3)CC2)n1` [Example-18, 5-(4-((6-(5-(Isopropylsulfonyl)-1H-indol-1-yl)pyridin-3-yl)oxy)piperidin-1-yl)-3-methyl-1,2,4-oxadiazole], the EC50 fell in the range of 50 to 250 nM.
On the same count and under the same terms, the same measure for `CCc1cnc(N2CCC(Oc3ccc(-n4ccc5cc(C(=O)NCCO)ccc54)nc3)CC2)nc1` [Example-77, 1-(5-((1-(5-Ethylpyrimidin-2-yl)piperidin-4-yl)oxy)pyridin-2-yl)-N-(2-hydroxyethyl)-1H-indole-5-carboxamide]: under 50 nM; for `CN(C)C(=O)c1ccc2c(ccn2-c2ccc(OCC3CCN(C(=O)OC(C)(C)C)CC3)cn2)c1` [Example-45, tert-butyl 4-(((6-(5-(dimethylcarbamoyl)-1H-indol-1-yl)pyridin-3-yl)oxy)methyl)piperidine-1-carboxylate]: < 50 nM and 50 to 250 nM.
Same read-out and setting: with `CC(C)C(=O)Nc1ccc2c(ccn2-c2ccc(OC3CCN(C(=O)OC(C)(C)C)CC3)cn2)c1` [Example-56, tert-Butyl-4-((6-(5-isobutyramido-1H-indol-1-yl)pyridin-3-yl)oxy)-piperidine-1-carboxylate] the figure was under 50 nM; with `CCOC(=O)N1CCC(Oc2ccc(-n3ccc4cc(N5CCCC5=O)ccc43)nc2)CC1` [Example-182, Ethyl 4-((6-(5-(2-oxopyrrolidin-1-yl)-1H-indol-1-yl)pyridin-3-yl)oxy) piperidine-1-carboxylate], 50 to 250 nM.

The subject of the next experiment is C57 BL/6J mice. The experiment in a line: Oral glucose tolerance test. It counts as in vivo. The conditions noted are these: blood glucose delta AUC; male C57 BL/6J mice fasted 16 h; 10 mg/kg oral gavage 30 min before glucose bolus 3 g/kg; 20-120 min. As to the method: Oral Glucose Tolerance Test:
9-10 weeks old male C57 BL/6J mice were maintained on a regular chow diet. The day of the experiment mice were fasted for 16 h and then randomized in to groups (n=7-8) based on blood glucose and bodyweight to receive vehicle (80% PEG400, 10% Tween80, 10% Ethanol) or test compounds (at 10 mg/kg). Vehicle or test compounds were delivered via oral gavage at 10 ml/kg volume. Thirty minutes later, the mice were dosed orally with a glucose bolus (3 g/kg) at 10 ml/kg volume. Blood glucose measurements were taken at 20, 40, 60 and 120 minutes after glucose administration by glucometer (CONTOUR TS, Bayer). Total AUC and Delta AUC were calculated by using graph pad prism (5.0).
`CCc1cnc(N2CCC(Oc3ccc(-n4ccc5cc(C(=O)NC)ccc54)nc3)CC2)nc1` [Example-63, 1-(5-((1-(5-Ethylpyrimidin-2-yl)piperidin-4-yl)oxy)pyridin-2-yl)-N-methyl-1H-indole-5-carboxamide]: the “% reduction in delta AUC at 10 mg/kg” value worked out at 28%.
Still for that read-out and setting: the same measure for `CCOC(=O)Nc1ccc2c(ccn2-c2ccc(OC3CCN(c4nc(CC)no4)CC3)cn2)c1` [Example-142, Ethyl(1-(5-((1-(3-ethyl-1,2,4-oxadiazol-5-yl)piperidin-4-yl)oxy)pyridin-2-yl)-1H-indol-5-yl)carbamate]: 35%.

Still in this experiment, the particulars now being: blood glucose total AUC; male C57 BL/6J mice fasted 16 h; 10 mg/kg oral gavage 30 min before glucose bolus 3 g/kg; 20-120 min.
With `CCc1cnc(N2CCC(Oc3ccc(-n4ccc5cc(C(=O)NC)ccc54)nc3)CC2)nc1` [Example-63, 1-(5-((1-(5-Ethylpyrimidin-2-yl)piperidin-4-yl)oxy)pyridin-2-yl)-N-methyl-1H-indole-5-carboxamide], the “% reduction in total AUC at 10 mg/kg” value is listed as 19%.
Same read-out and setting: the same measure for `CCOC(=O)Nc1ccc2c(ccn2-c2ccc(OC3CCN(c4nc(CC)no4)CC3)cn2)c1` [Example-142, Ethyl(1-(5-((1-(3-ethyl-1,2,4-oxadiazol-5-yl)piperidin-4-yl)oxy)pyridin-2-yl)-1H-indol-5-yl)carbamate]: 20%.
